{"source": "patent US20250092353A1", "about": "“COMMENSAL FUNGUS AND USES THEREOF” (YEDA RESEARCH AND DEVELOPMENT CO. LTD., priority 2022, published 2025)", "key": {"[1]": {"system": "serum IgA and IgG", "test": "In vitro serum antibody binding assay (sera of colonized mice)", "assay_type": "in vivo", "details": "single-colonized animals", "description": "Blood was collected from mice at rested at RT for 1 hour, followed by centrifugation 2,000 g 10 min. Serum supernatant was collected and froze at −80° C. until use. Cultured fungi were normalized to OD600=1 in PBS supplemented with 1% bovine serum albumin and 0.01% sodium azide (PBA solution). Cultured fungi were incubated with 20× diluted mouse serum on ice for 45 minutes, then washed twice with PBA, followed by staining with anti-mouse IgA and IgG. Samples were recorded on Cytek Aurora and analyzed in FlowJo (Treestar). Antibody binding intensity was normalized to the negative controls. Isotype control, non-stained and no-serum were used as negative controls."}, "[2]": {"system": "CD4+ T cells in PBMCs", "test": "Antigen-reactive T cell enrichment (ARTE)", "assay_type": "cell-based, human", "details": "peripheral blood of healthy individuals, 40 μg/ml fungal lysates", "description": "PBMCs were freshly isolated from EDTA blood samples on the day of blood donation by density gradient centrifugation (Biocoll; Biochrom, Berlin, Germany). Antigen-reactive T cell enrichment (ARTE) was performed as follows. Briefly, 2×10e^7 PBMCs were plated in RPMI-1640 medium (GIBCO), supplemented with 5% (v/v) human AB-serum (Sigma Aldrich, Schnelldorf, Germany) at a cell density of 1×10e^7 PBMCs/2 cm^2 in cell culture plates and stimulated with 40 μg/ml fungal lysates for 7 hr in presence of 1 μg/ml CD40 and 1 μg/ml CD28 pure antibody (both Miltenyi Biotec, Bergisch Gladbach, Germany). 1 μg/ml Brefeldin A (Sigma Aldrich) was added for the last 2 hr. Cells were labeled with CD154-Biotin followed by anti-Biotin MicroBeads (CD154 MicroBead Kit; Miltenyi Biotec) and magnetically enriched by two sequential MS columns (Miltenyi Biotec). Surface staining was performed on the first column, followed by fixation, permeabilization (Inside stain Kit, Miltenyi Biotec) and intracellular staining on the second column. […]\nFrequencies of antigen-specific T cells were determined based on the total cell count of CD154+ T cells after enrichment, normalized to the total number of CD4+ T cells applied on the column. […]"}, "[3]": {"system": "C. albicans SC5314 (ENO1-GFP)", "test": "In vivo competition with C. albicans in germ-free animals", "set-up": "species or system mice", "details": "oral mixture of the two fungi", "source_text": "FIGS. 3A-3M include fluorescent micrographs, graphs, and a scheme, showing K. weizmannii competition with C. albicans in colonized animals. (3A) A representative picture of a far-red fluorescent reporter Kazachstania strain (K. weizmannii ENO1-Mirf). (3B-C) Recoverable fecal K. weizmannii in colonized wild-type animals (without antibiotics) one and six months after single oral K. weizmannii ENO1-Mirf inoculation. (3D) Flow cytometric analysis of C. albicans SC5314 (ENO1-GFP), K. weizmannii (ENO1-Mirf), and mixed cultures used for oral inoculation (3E). […] Quantification (n=3-5 mice per group, 4 independent experiments) (see (3D). (3H) Schematic non-limiting outline of a co-housing experiment. (3I) Representative flow cytometric feces analysis of colonized mice 4 weeks after initial colonization (before cohousing) and 2 weeks after co-housing. (N=4 per group). (3J) Percentages of respective labelled fungi in feces of C. albicans, K. weizmannii colonized animals, before and after co-housing in Abx presence (except for day 48 and 58); antibiotics withdrawal on day 46 of cohousing, n=4 per group, representative of 2 independent experiments. (3K) Flow cytometric analysis of feces of germfree animals 1 week after oral inoculation of single fungi cultures or mixed C. albicans SC5314 (ENO1-GFP)/K. weizmannii (ENO1-Mirf) culture. […]"}}, "data": [{"substance": "Kazachstania weizmannii [K. weizmannii]", "values": [{"measurement": "anti-fungal serum IgA and IgG titers", "setting": "[1]", "value": "induced robust anti-fungal serum IgA and IgG titers in most animals"}, {"measurement": "polarization of fungus-reactive T cells", "setting": "[2]", "value": "of the Th1 type"}, {"measurement": "C. albicans colonization after co-inoculation", "setting": "[3]", "value": "prevented efficient C. albicans colonization"}]}]}
